Literature values in publication PMC2970821 (Clinical Proteomics, 2010).
Ends that are not written are not given here.

Conditions: apparently generating ITIH4-25, ref [26]

For RPGVLSSRQLGLPGPPDVPDHAAYHPF [ITIH4-27], which “Susceptibility to degradation of the synthetic peptide in plasma and serum” value is on record?
The value was “highest susceptibility to degradation”.
